From publication PMC4607647 (Bioorganic & medicinal chemistry letters, 2015)

What was measured:
Format in all cases: biochemical
[1] = biological target: GFP-LG-PARP10 (Homo sapiens, UniProt Q53GL7, L926G); conditions: immunoprecipitated from HEK 293T cells, 6-alkyne-NAD+ substrate
[2] = biological target: T1, GFP-WT-PARP10 (Homo sapiens, UniProt Q53GL7); conditions: up to 100 μM; immunoprecipitated from HEK 293T cells, 6-alkyne-NAD+ substrate
T1 sequence (Q53GL7 1-1025): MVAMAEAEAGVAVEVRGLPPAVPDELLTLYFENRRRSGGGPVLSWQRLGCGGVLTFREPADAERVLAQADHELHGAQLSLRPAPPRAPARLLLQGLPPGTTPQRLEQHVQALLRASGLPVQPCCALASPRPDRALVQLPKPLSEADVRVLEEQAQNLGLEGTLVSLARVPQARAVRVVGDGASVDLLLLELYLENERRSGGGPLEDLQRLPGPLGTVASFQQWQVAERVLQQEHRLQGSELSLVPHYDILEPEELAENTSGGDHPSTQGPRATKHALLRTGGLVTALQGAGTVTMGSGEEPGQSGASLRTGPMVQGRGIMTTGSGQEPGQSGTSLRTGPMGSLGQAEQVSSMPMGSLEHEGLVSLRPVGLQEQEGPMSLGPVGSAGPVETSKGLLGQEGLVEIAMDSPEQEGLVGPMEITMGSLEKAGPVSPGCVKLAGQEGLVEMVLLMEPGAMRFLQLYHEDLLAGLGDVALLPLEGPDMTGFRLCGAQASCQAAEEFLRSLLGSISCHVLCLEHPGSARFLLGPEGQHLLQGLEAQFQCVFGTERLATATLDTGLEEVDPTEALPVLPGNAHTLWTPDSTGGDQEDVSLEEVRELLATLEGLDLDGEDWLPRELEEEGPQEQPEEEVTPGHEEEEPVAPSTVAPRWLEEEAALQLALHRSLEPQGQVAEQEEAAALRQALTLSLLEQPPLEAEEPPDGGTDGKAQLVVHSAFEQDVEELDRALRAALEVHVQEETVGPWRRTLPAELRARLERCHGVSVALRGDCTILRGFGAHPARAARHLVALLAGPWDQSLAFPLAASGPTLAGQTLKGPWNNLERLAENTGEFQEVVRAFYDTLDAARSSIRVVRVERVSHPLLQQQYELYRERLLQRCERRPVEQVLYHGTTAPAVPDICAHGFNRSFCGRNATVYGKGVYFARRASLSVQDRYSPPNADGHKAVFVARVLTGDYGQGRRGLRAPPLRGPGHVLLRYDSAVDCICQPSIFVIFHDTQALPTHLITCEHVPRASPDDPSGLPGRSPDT

[3] = biological target: LG-PARP10cat (Homo sapiens, UniProt Q53GL7, L926G); conditions: for increase in potency against LG-PARP10cat compared to 1: compared to parent dq scaffold 1
Chain of LG-PARP10cat (Q53GL7 806-1025 L926G): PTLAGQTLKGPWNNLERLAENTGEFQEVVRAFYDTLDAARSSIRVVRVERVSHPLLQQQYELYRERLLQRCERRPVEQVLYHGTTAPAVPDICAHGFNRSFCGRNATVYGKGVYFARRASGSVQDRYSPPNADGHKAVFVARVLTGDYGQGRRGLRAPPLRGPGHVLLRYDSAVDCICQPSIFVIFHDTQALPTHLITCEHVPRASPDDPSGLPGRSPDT

Chain of GFP-LG-PARP10 (Q53GL7 whole entry L926G): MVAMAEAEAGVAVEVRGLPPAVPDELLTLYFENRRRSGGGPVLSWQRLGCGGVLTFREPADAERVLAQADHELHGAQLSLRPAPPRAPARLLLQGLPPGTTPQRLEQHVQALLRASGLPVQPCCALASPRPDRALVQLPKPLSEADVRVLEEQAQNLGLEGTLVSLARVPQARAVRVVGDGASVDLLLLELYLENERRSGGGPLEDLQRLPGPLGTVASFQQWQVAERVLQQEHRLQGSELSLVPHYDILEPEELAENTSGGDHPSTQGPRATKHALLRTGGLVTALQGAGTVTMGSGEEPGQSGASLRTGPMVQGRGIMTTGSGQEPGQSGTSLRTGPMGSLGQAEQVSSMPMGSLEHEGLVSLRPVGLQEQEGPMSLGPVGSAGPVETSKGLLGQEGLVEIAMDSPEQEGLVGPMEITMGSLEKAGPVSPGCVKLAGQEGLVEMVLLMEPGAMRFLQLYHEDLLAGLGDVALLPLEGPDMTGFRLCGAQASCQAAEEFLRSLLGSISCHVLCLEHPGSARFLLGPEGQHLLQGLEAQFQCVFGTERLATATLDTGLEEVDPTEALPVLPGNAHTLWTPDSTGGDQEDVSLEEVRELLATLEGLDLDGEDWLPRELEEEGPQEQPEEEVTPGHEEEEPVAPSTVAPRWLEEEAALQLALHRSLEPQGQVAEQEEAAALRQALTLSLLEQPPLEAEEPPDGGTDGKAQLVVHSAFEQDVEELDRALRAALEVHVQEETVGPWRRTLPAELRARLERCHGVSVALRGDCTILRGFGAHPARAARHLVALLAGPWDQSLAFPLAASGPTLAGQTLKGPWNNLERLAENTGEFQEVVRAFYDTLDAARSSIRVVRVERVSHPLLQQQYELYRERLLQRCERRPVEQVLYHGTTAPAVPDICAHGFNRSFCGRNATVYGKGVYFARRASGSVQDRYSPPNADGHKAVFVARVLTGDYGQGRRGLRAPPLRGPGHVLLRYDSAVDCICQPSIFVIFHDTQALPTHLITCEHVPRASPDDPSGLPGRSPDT

Structure (SMILES) | inhibition of auto-ADP-ribosylation of GFP-LG-PARP10 [1] | effect on auto-ADP-ribosylation of GFP-WT-PARP10 [2] | selectivity for LG-PARP10cat versus WT-PARP10cat ([3]; LG- versus WT-PARP10cat) | increase in potency against LG-PARP10cat compared to 1 [3]
O=C1NCCc2ccc(Br)cc21 [Compound 4, 7-Br-dq] | inhibited the auto-ADP-ribosylation of GFP-LG-PARP10 in a dose-dependent manner | unaffected | greater than 10 fold | –
Cc1ccc2c(c1)C(=O)NCC2 [Compound 5] | – | – | – | did not exhibit increased potency
O=C1NCCc2ccc(C(F)(F)F)cc21 [Compound 6] | – | – | – | 2 fold
O=C1NCCc2ccc(O)cc21 [Compound 7] | – | – | – | did not exhibit increased potency
COc1ccc2c(c1)C(=O)NCC2 [Compound 8] | – | – | – | did not exhibit increased potency
